Read-outs that look alike come from different tables or passages of the source.
Legend:
[1] = target: Full length wild-type cereblon CRBN (Homo sapiens (Human), UniProt Q96SW2); test: fluorescence polarization (FP) assay, cereblon binding
Description: Compound activity was monitored in a fluorescence polarization (FP) homogeneous assay using 1-[5-({2-[2-(2-{[2-(2,6-dioxopiperidin-3-yl)-1,3-dioxo-2,3-dihydro-1H-isoindol-4-yl]oxy}acetamido)ethoxy]ethyl}carbamoyl)pentyl]-3,3-dimethyl-2-[(1E,3E)-5-[(2E)-1,3,3-trimethyl-5-sulfo-2,3-dihydro-1H-indol-2-ylidene]penta-1,3-dien-1-yl]-3H-indol-1-ium-5-sulfonate as a fluorescent probe. Unless otherwise stated, all reagents were purchased from Sigma Aldrich. […] Full length wild-type cereblon CRBN (80.0 nM, 10 μL) was incubated in assay buffer containing 20 mM HEPES (pH 8.0), […], 0.5 mM TCEP and 0.05% Tween 20 in the presence or absence of compound (300 nL). Inhibitors were stored as 10 mM DMSO stocks in an inert environment (low humidity, dark, low oxygen, room temperature) using the Storage Pod System. […] Following incubation at room temperature for 30 min, the assay was initiated by dispensing the probe to a final concentration of 5 nM (2.5 nL of a 20 μM stock) using the Echo ESXX. […] The FP signal was subsequently normalized to the no-compound control (i.e., DMSO). Analysis and IC50 values were derived using Dotmatics (Dotmatics UK) software.

GSPT1 = GSPT1 (Homo sapiens (Human), UniProt P15170+Q96SW2); test: immunofluorescence assay for GSPT1 degradation in CAL-51 cells (Example 4); format: cell-based
Protocol: The representative compounds were tested in an immunofluorescence assay for their activity to bind to degrade GSPT1. CAL-51 cells were purchased from DSMZ (cat. Number ACC302), sub-cultured in 90% Dulbecco's MEM (4.5 g/L glucose, Gibco 11965) +10% heat inactivated FBS (BioConcept, 2-01F136I) and incubated at 37° C., 5% CO2. For the assay, imaging microtiterplate Cell Carrier 96 Ultra (Perkin Elmer 6055302) were pre-coated with Fibronectin (Sigma F085, 30 μl at 0.2 μg/ml) in PBS (100 μl, Gibco 14190) for 45 min at room temperature, rinsed with PBS and CAL-51 cells (30 K cells/well) were plated and let to adhere overnight. Cells were treated with compounds typically using a serial dilution ranging from 30 μM to 0.1 nM for 6 hours. Compounds were stored at 10 mM DMSO stocks. Vehicle (DMSO), positive (CC-885, 10 μM) and rescue controls (positive control plus 0.2 μM bortezomib) were also included atthis stage. Cells were subsequently rinsed with PBS and fixed in 10% Formalin solution (50 μl, Sigma HT5011)) for 20 mins at room temperature. Following three consecutive PBS washes (100 μl), cells were permeabilized in 0.1% Triton X-100 in PBS (Sigma 93443, 50 μl) for 15 mins at room temperature. Following three further PBS washes, 50 μl blocking buffer (1% BSA, Sigma A4503, in PBS) was added for 45 min for signal-to-noise reduction.
Primary antibody (human GSPT1, Sigma HPA052488) was diluted in blocking buffer (dil.1/300, 35 μl/well) and incubated with the cells overnight at 4° C. After three PBS washes, Alexa-fluor 488 coupled secondary antibodies (Invitrogen, A32731, dil.1/1000), Alexa-fluor 647-Phalloidin (Invitrogen, A22287, dil.1/200) and DAPI (Thermo, #62248, dil.1/1000) were diluted in blocking buffer and incubated with the samples for 2 hours at room temperature. After three final PBS washes, samples were conserved in 100 μl PBS in the dark, until measurement. Image acquisition was performed on the Operetta High-Content Imager (Perkin-Elmer). Fluorescence intensity of Alexa-Fluor 488 (GSPT1), Alexa-Fluor 647 (Actin) and DAPI (Nucleus) were measured. For the determination of GSPT1 DC50 values, a custom algorithm implemented in the PerkinElmer image analysis software Harmony-Acapella® was developed. After user-defined setting of adjustment parameters, the analysis was run identically without human intervention for all image fields. DAPI staining of the nuclei was used to determine the location of cells using standard nuclei detection modules. Segmentation artifacts were removed by threshold-based filters for area, roundness and intensity. The outline of the cells was determined analogously from the sum of the normalized, smoothed DAPI and Actin channel, starting from each nucleus. The Alexa-Fluor 488 (GSPT1) signal intensity in each cell was finally measured, in order to obtain a Mean intensity per cell. GSPT1 degradation (DC50) was calculated after normalization to controls and data import in CDD vault Database, using non-linear regression.

[2] = 6 hours, read-out: Activity for GSPT1 degradation, Code (DC50)
[3] = GSPT1 degradation, read-out: DC50 value

GSPT1, sequence (P15170 whole entry): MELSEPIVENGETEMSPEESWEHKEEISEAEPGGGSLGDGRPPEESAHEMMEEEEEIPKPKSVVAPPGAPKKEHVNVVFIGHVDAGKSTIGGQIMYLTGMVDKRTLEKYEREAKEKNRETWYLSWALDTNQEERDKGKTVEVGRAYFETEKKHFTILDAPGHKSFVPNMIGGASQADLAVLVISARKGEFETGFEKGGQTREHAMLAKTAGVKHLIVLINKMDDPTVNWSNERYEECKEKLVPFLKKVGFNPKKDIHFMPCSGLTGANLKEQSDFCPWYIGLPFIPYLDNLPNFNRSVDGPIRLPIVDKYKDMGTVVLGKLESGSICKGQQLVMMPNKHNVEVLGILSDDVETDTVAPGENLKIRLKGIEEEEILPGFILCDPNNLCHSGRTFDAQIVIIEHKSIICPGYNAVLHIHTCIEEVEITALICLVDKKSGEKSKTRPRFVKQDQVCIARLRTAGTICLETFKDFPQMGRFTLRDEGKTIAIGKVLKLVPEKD
GSPT1, sequence (Q96SW2 whole entry): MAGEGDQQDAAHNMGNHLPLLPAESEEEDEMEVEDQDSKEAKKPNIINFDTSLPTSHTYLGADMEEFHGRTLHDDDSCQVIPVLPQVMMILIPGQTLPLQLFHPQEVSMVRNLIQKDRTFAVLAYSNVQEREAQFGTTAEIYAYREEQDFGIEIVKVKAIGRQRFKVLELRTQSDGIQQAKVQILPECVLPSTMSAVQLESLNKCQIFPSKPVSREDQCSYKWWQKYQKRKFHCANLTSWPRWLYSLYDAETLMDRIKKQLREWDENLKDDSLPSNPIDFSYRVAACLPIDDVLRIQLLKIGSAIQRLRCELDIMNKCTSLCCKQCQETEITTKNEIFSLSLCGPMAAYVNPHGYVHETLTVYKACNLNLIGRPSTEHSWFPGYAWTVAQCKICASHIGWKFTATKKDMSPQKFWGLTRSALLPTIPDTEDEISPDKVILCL
GSPT1, sequence (Q16531 2-1140 partner): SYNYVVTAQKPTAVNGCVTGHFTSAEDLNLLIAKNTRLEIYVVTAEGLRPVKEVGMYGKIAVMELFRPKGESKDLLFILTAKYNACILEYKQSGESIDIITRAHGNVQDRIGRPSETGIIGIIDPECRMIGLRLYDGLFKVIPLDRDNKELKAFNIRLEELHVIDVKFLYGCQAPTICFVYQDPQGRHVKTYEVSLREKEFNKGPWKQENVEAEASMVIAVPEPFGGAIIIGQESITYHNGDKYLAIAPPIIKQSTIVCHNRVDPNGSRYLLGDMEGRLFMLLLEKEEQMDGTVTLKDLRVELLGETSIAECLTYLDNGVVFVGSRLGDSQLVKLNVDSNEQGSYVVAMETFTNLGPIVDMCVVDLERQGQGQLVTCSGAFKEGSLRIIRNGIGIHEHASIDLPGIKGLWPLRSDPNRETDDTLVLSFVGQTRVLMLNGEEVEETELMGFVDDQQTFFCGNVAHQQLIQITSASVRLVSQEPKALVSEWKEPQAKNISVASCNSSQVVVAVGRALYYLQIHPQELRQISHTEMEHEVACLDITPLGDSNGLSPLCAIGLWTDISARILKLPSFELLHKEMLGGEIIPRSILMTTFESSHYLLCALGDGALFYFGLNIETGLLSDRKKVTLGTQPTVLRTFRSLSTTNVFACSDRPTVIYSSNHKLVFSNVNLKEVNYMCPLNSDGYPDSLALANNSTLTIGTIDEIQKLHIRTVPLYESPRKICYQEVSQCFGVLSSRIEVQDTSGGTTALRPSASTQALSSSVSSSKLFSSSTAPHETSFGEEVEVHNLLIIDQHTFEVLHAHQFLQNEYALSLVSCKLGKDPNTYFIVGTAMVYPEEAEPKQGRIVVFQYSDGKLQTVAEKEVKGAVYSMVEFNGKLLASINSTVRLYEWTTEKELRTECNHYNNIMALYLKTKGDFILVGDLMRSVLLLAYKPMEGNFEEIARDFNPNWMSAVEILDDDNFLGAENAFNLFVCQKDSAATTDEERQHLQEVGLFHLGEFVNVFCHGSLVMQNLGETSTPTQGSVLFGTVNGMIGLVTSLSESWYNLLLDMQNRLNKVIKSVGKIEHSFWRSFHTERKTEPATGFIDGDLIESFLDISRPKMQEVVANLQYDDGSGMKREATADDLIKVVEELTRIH
Full length wild-type cereblon CRBN, sequence (Q96SW2 whole entry): as the sequence (Q96SW2 whole entry) above

O=C1CCC(N2Cc3ccc(COC(=O)Nc4cc(F)cc(OC(F)(F)F)c4)cc3C2=O)C(=O)N1 (centres unmarked) [Compound 57]
IC50 ([1]; read-out: rFP IC50): > 1.7 µM
DC50 (GSPT1; [2]): < 0.03 µM
DC50 (GSPT1; [3]): ≤ 0.03 µM

O=C1CCC(N2Cc3ccc(COC(=O)Nc4ccc(-c5ccccc5)c(F)c4)cc3C2=O)C(=O)N1 (centres unmarked) [Compound 136, (2-(2,6-dioxopiperidin-3-yl)-3-oxoisoindolin-5-yl)methyl (2-fluoro-[1,1′-biphenyl]-4-yl) carbamate]
IC50 ([1]; read-out: rFP IC50): > 1.7 µM
DC50 (GSPT1; [2]): 0.03 to 0.3 µM

COc1cc(NC(=O)OCc2ccc3c(c2)C(=O)N(C2CCC(=O)NC2=O)C3)ccc1C (centres unmarked) [Compound 37]
IC50 ([1]; read-out: rFP IC50): > 1.7 µM
DC50 (GSPT1; [2]): 0.03 to 0.3 µM

O=C1CCC(N2Cc3ccc(COC(=O)Nc4ccc(-c5ccccn5)cc4F)cc3C2=O)C(=O)N1 (centres unmarked) [Compound 135, (2-(2,6-dioxopiperidin-3-yl)-3-oxoisoindolin-5-yl)methyl (2-fluoro-4-(pyridin-2-yl)phenyl)carbamate]
IC50 ([1]; read-out: rFP IC50): < 0.5 µM
DC50 (GSPT1; [2]): < 0.03 µM
DC50 (GSPT1; [3]): ≤ 0.03 µM

O=C1CCC(N2Cc3ccc(COC(=O)NCc4ccccc4)cc3C2=O)C(=O)N1 (centres unmarked) [Compound 98]
IC50 ([1]; read-out: IC50 value): < 1.1 µM
DC50 (GSPT1; [2]): > 0.3 µM

CC1CCCCN1c1ccc(NC(=O)OCc2ccc3c(c2)C(=O)N(C2CCC(=O)NC2=O)C3)cn1 (centres unmarked) [Compound 77]
IC50 ([1]; read-out: IC50 value): < 1.1 µM
DC50 (GSPT1; [2]): < 0.03 µM
DC50 (GSPT1; [3]): ≤ 0.03 µM

Cc1cc(NC(=O)OCc2ccc3c(c2)C(=O)N(C2CCC(=O)NC2=O)C3)cc(C)c1F (centres unmarked) [Compound 124, (2-(2,6-dioxopiperidin-3-yl)-3-oxoisoindolin-5-yl)methyl (4-fluoro-3,5-dimethylphenyl)carbamate]
IC50 ([1]; read-out: rFP IC50): < 0.5 µM
DC50 (GSPT1; [2]): 0.03 to 0.3 µM

Cc1ccc(NC(=O)OCc2ccc3c(c2)C(=O)N(C2CCC(=O)NC2=O)C3)cc1C (centres unmarked) [Compound 129]
IC50 ([1]; read-out: rFP IC50): < 0.5 µM
DC50 (GSPT1; [2]): 0.03 to 0.3 µM

Cc1ccc(NC(=O)OCc2ccc3c(c2)C(=O)N(C2CCC(=O)NC2=O)C3)cc1C#N (centres unmarked) [Compound 110, (2-(2,6-dioxopiperidin-3-yl)-3-oxoisoindolin-5-yl)methyl(3-cyano-4-methylphenyl)carbamate]
IC50 ([1]; IC50 value): < 1.1 µM
IC50 ([1]; read-out: IC50 value): < 0.5 µM
IC50 ([1]; read-out: rFP IC50): < 0.5 µM
DC50 (GSPT1; [3]): ≤ 0.03 µM
DC50 (GSPT1; read-out: Activity for GSPT1 degradation, Code (DC50), 6 hours): < 0.03 µM

Cc1c(Cl)cc(NC(=O)OCc2ccc3c(c2)C(=O)N(C2CCC(=O)NC2=O)C3)cc1OCC1CCN(C)C1 (centres unmarked) [Compound 70]
IC50 ([1]; read-out: rFP IC50): < 0.5 µM
DC50 (GSPT1; [2]): 0.03 to 0.3 µM

C[C@H]1CCCN1c1ccc(NC(=O)OCc2ccc3c(c2)C(=O)N(C2CCC(=O)NC2=O)C3)cn1 (stereo partly drawn) [Compound 156, (2-(2,6-dioxopiperidin-3-yl)-3-oxoisoindolin-5-yl)methyl (6-((S)-2-methylpyrrolidin-1-yl)pyridin-3-yl)carbamate]
IC50 ([1]; read-out: rFP IC50): < 0.5 µM
DC50 (GSPT1; [2]): < 0.03 µM
DC50 (GSPT1; [3]): ≤ 0.03 µM

O=C1CCC(N2Cc3ccc(COC(=O)N4CCCCC4)cc3C2=O)C(=O)N1 (centres unmarked) [Compound 23]
IC50 ([1]; read-out: rFP IC50): < 0.5 µM
DC50 (GSPT1; [2]): > 0.3 µM

O=C1CCC(N2Cc3ccc(COC(=O)Nc4ccnc(-c5ccccc5)c4)cc3C2=O)C(=O)N1 (centres unmarked) [Compound 149]
IC50 ([1]; read-out: rFP IC50): < 0.5 µM
DC50 (GSPT1; [2]): > 0.3 µM

O=C1CCC(N2Cc3ccc(COC(=O)Nc4cc(F)c(-c5ccccc5)c(F)c4)cc3C2=O)C(=O)N1 (centres unmarked) [Compound 134, (2-(2,6-dioxopiperidin-3-yl)-3-oxoisoindolin-5-yl)methyl(2,6-difluoro-[1,1′-biphenyl]-4-yl)carbamate]
IC50 ([1]; read-out: rFP IC50): > 1.7 µM
DC50 (GSPT1; [2]): 0.03 to 0.3 µM

Cc1cc(C)cc(NC(=O)OCc2ccc3c(c2)C(=O)N(C2CCC(=O)NC2=O)C3)c1 (centres unmarked) [Compound 8]
IC50 ([1]; read-out: IC50 value): < 1.1 µM
DC50 (GSPT1; [2]): < 0.03 µM
DC50 (GSPT1; [3]): ≤ 0.03 µM

O=C1CCC(N2Cc3ccc(COC(=O)Nc4cnc(-c5ccccc5)c(F)c4)cc3C2=O)C(=O)N1 (centres unmarked) [Compound 85]
IC50 ([1]; read-out: rFP IC50): > 1.7 µM
DC50 (GSPT1; [2]): < 0.03 µM
DC50 (GSPT1; [3]): ≤ 0.03 µM

Reference: patent US11912682B2, “Isoindolinone compounds” (Monte Rosa Therapeutics, Inc., priority 2021, dated 2024)
